Test results published in patent US10039729B2, “Use of kukoamine A and kukoamine B” (Tianjin Chase Sun Pharmaceutical Co., Ltd., priority 2010, dated 2018).

Key:
RAW264.7 cells [1] = assay: mRNA expression in RAW264.7 cells stimulated by LPS and CpG DNA (real-time PCR); assay type: cell-based, murine
Experimental: Cells preparation: Cells suspension was adjusted to 1×10^6/ml in DMEM supplemented with 10% (v/v) NCS; 2 ml of the above suspension was added into 6-well plates and cultured at 37° C. in a 5% CO2 humidified incubator for 2 h; for the purpose of experiment four groups were established: medium group, KB control group, stimulation group and KB treatment group; no reagent was added in medium group; KB control group was added with KB (200 μM); stimulation group was added with LPS (100 ng/ml) and CpG DNA (10 μg/ml); KB treatment group was added with KB (concentrations of 100 and 200 μM) in the meantime of adding LPS and CpG DNA; cells were cultured for 4 h and collected.
RNA extraction: Supernatant was sucked and discarded; 1 ml tripure was added into each well and resuspended with a pipet to make cells completely lysed; the lysate was transferred into 1.5 ml EP tube and incubated at room temperature for 5 min to ensure completed separation of ribonucleoprotein complex; 0.2 ml chloroform was added into EP tube; tube cap was closed and mixed by inversion for 15 sec; EP tube was incubated at room temperature for 10 min until layering of the liquid in tube, then centrifuged at 12000 g at 4_for 15 min; solution was separated into the three-phase; the upper solution (colorless liquid, approximately 0.4 ml) in EP tube was transferred into a new EP tube (DEPC treated); 0.5 ml isopropyl alcohol was added into EP tubes and the liquid was mixed by inversion for several times; EP tube was incubated at room temperature for 10 min to promote RNA precipitating, and centrifuged at 12000 g at 4_for 10 min; the supernatant was discarded; RNA precipitate was added with 1 ml 75% ethanol, vortex washed, and centrifuged at 12000 g at 4 for 10 min; then the supernatant was discarded; EP tube was dried at room temperature for 15 min to remove excessive ethanol; RNA precipitate was diluted with 20 μl ddH2O treated with DEPC, resuspended by pipetting in and out several times, incubated at 55 to 60 for 10 min, and then stored at −70.
Reverse transcription: Reverse-transcription reaction mixture (include: Rnase-free H2O, 10 μl; 5×RT buffer, 4 μl; dNTP mixture, 2 μl; RNase inhibitor, 1 μl; Oligo(dT)20, 1 μl; RNA, 1 μl; ReverTra Ace, 1 μl) was prepared on ice bath, mixed, incubated at 42° C. for 1 h and at 99° C. for 5 min, stored at −20.
PCR amplification: Primers were designed using Primer Premier 5 software by ourselves, and synthesized by Shanghai Sangon Biological Engineering Technology & Services Co., Ltd. The relevant primer sequences are as follows […]
Results were expressed as CT value, and converted into ratio of β-actin, the internal reference items, according to 2^−ΔΔCT methods. […]

RAW264.7 cells [2] = assay: Semi-quantitative RT-PCR of TLR4, TLR9, MyD88 and western blot of NF-κB p65 in RAW264.7 cells; assay type: cell-based, murine; settings: KB 200 μM
Experimental: Reaction mixtures were added into 0.2 ml PCR tubes. The reaction mixture included 1 μl cDNA, 10.0 μl 2×Taq Master Mix, 1 μl upstream primer (10 μM), 1 μl downstream primer (10 μM) and 7 μl RNase-free H2O. PCR programs are as follows:
Finally, the PCR products were detected by agarose gel electrophoresis; 1% agarose gel was prepared and cast; 5 μl PCR products of each tube were loaded, electrophoresed at 100 v for 30 min; then gel was took out and scanned; the images were analysed by Quantity One software.
(2) Inhibition of KB on activation of NF-κB p65 in RAW264.7 cells induced by LPS and CpG DNA: Methods are as above; nucleoprotein extraction continued to be incubated for 1 h after sample loading; then, NF-κB p65 in it was assayed using westernblot; the procedure of nucleoprotein extraction and westernblot were consistent with embodiment 23.

## NCCCN(CCCCNCCCNC(=O)CCc1ccc(O)c(O)c1)C(=O)CCc1ccc(O)c(O)c1 [KB, Kukoamine B]
RAW264.7 cells [1]; 100, 200 μM, CpG DNA 10 μg/ml, 4 h, dose-dependent
  mRNA expressions of TNF-α, IL-6, iNOS and COX-2 up-regulated by CpG DNA: significantly inhibit the mRNA expressions
RAW264.7 cells [1]; 100, 200 μM, LPS 100 ng/ml, 4 h, dose-dependent
  mRNA expressions of TNF-α, IL-6, iNOS and COX-2 up-regulated by LPS: significantly inhibit the mRNA expressions
RAW264.7 cells [1]; KB 100 and 200 μM, RT-PCR
  up-regulated expression of TLR4 induced by LPS and CpG DNA: significantly inhibited
  up-regulated expression of TLR9 induced by LPS and CpG DNA: significantly inhibited
RAW264.7 cells [2]; 4 h, semi-quantitative RT-PCR
  up-regulated expression of TLR4, TLR9 and MyD88 stimulated by LPS and CpG DNA: inhibited up-regulated expression
RAW264.7 cells [2]; LPS 100 ng/ml, CpG DNA 10 μg/ml, western blot
  up-regulation of NF-κB p65 in RAW264.7 cell nucleus induced by LPS and CpG DNA: inhibit the up-regulation of NF-κB p65
